# Reference: patent US12448388B2, “PRMT5 inhibitors and uses thereof” (Gilead Sciences, Inc., priority 2023, dated 2025)
# Tested on: HCT116 MTAP-deleted cell lines
# Assay: Cell viability assay (CellTiter-Glo, 7 days), HCT116 MTAP-deleted
# Type: cell-based
# Conditions: Homo sapiens, HCT-116; cell viability assay, HCT116 MTAP-deleted; class symbols; read-out: CC50
# Method in brief: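 CC50 values come from 7-day CellTiter-Glo viability measurements on cells exposed to a dose range of PRMT5 inhibitors dispensed from DMSO stocks.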
row,Compound,CC50 [µM]
1,"Cc1ncc2c(N)nc3cnc(C(=O)N4CC[C@H]5C[C@@H]4c4ccc(C(F)(F)F)cc4O5)cc3n12 [Ff-369, (4-amino-1-methylimidazo[1,5-a]pyrido[3,4-e]pyrazin-8-yl)((2S,6R)-9-(trifluoromethyl)-3,4-dihydro-2H-2,6-methanobenzo[b][1,5]oxazocin-5(6H)-yl)methanone]",< 0.1
2,"Nc1nc2cc(Cl)c(C(=O)N3CC[C@H]4C[C@@H]3c3ccc(C(F)(F)F)cc3O4)cc2n2cncc12 [Ff-370, (4-amino-7-chloroimidazo[1,5-a]quinoxalin-8-yl)((2S,6R)-9-(trifluoromethyl)-3,4-dihydro-2H-2,6-methanobenzo[b][1,5]oxazocin-5(6H)-yl)methanone]",< 0.1
3,"Nc1nc2cc(Cl)c(C(=O)N3CC[C@H]4C[C@@H]3c3ccc(C(F)(F)F)nc3O4)cc2n2cncc12 [Ff-371, (4-amino-7-chloroimidazo[1,5-a]quinoxalin-8-yl)((2S,6R)-9-(trifluoromethyl)-3,4-dihydro-2H-2,6-methanopyrido[2,3-b][1,5]oxazocin-5(6H)-yl)methanone]",< 0.1
4,"Cc1ncn2c1c(N)nc1cc(F)c(C(=O)N3C[C@H](C)C[C@@H]4Oc5nc(C(F)(F)F)ccc5[C@@H]43)cc12 [Ff-374, (4-amino-7-fluoro-3-methylimidazo[1,5-a]quinoxalin-8-yl)((3R,4aS,9bS)-3-methyl-7-(trifluoromethyl)-3,4,4a,9b-tetrahydrofuro[2,3-b:4,5-b′]dipyridin-1(2H)-yl)methanone]",< 0.1
5,"C[C@@H]1C[C@@H]2Oc3nc(C(F)(F)F)ccc3[C@@H]2N(C(=O)c2cc3c(cc2F)nc(N)c2cncn23)C1 [Ff-375, (4-amino-7-fluoroimidazo[1,5-a]quinoxalin-8-yl)((3R,4aS,9bS)-3-methyl-7-(trifluoromethyl)-3,4,4a,9b-tetrahydrofuro[2,3-b:4,5-b′]dipyridin-1(2H)-yl)methanone]",< 0.1
6,"Cc1ncc2c(N)nc3cnc(C(=O)N4CCC[C@@H]5Oc6cc(OC(F)(F)F)c(F)cc6[C@@H]54)cc3n12 [Ff-376, (4-amino-1-methylimidazo[1,5-a]pyrido[3,4-e]pyrazin-8-yl)((4aS,9bS)-8-fluoro-7-(trifluoromethoxy)-3,4,4a,9b-tetrahydrobenzofuro[3,2-b]pyridin-1(2H)-yl)methanone]",< 0.1
7,"Nc1nc2ccc(C(=O)N3CCC[C@@H]4Oc5cc(OC(F)(F)F)c(F)cc5[C@@H]43)cc2n2cncc12 [Ff-377, (4-aminoimidazo[1,5-a]quinoxalin-8-yl)((4aS,9bS)-8-fluoro-7-(trifluoromethoxy)-3,4,4a,9b-tetrahydrobenzofuro[3,2-b]pyridin-1(2H)-yl)methanone]",< 0.1
8,"CC1(C)CN(C(=O)c2cc3c(cc2F)nc(N)c2cncn23)[C@H]2c3ccc(C(F)(F)F)cc3C[C@H]2O1 [Ff-380, (4-amino-7-fluoroimidazo[1,5-a]quinoxalin-8-yl)((4aS,9aR)-2,2-dimethyl-7-(trifluoromethyl)-2,3,9,9a-tetrahydroindeno[2,1-b][1,4]oxazin-4(4aH)-yl)methanone]",< 0.1
9,"Nc1nc2ccc(C(=O)N3CCC[C@@H]4Oc5c(ccc(OC(F)(F)F)c5F)[C@@H]43)cc2n2cncc12 [Ff-381, (4-aminoimidazo[1,5-a]quinoxalin-8-yl)((4aS,9bS)-6-fluoro-7-(trifluoromethoxy)-3,4,4a,9b-tetrahydrobenzofuro[3,2-b]pyridin-1(2H)-yl)methanone]",< 0.1
10,"Cc1ncn2c1c(N)nc1cc(F)c(C(=O)N(C)[C@@H]3COc4cc(C(C)(F)F)ccc43)cc12 [Ff-382, (S)-4-amino-N-(6-(1,1-difluoroethyl)-2,3-dihydrobenzofuran-3-yl)-7-fluoro-N,3-dimethylimidazo[1,5-a]quinoxaline-8-carboxamide]",< 0.1
11,"Nc1nc2ccc(C(=O)N3CCC[C@@H]4Oc5cc(OC(F)(F)F)ccc5[C@@H]43)cc2n2cncc12 [Ff-383, (4-aminoimidazo[1,5-a]quinoxalin-8-yl)((4aS,9bS)-7-(trifluoromethoxy)-3,4,4a,9b-tetrahydrobenzofuro[3,2-b]pyridin-1(2H)-yl)methanone]",< 0.1
12,"C[C@H]1CC2Oc3cc(C(F)(F)F)ccc3C2N(C(=O)c2cc3c(cn2)nc(N)c2cncn23)C1 (stereo partly drawn) [Ff-386, (4-aminoimidazo[1,5-a]pyrido[3,4-e]pyrazin-8-yl)((3S)-3-methyl-7-(trifluoromethyl)-3,4,4a,9b-tetrahydrobenzofuro[3,2-b]pyridin-1(2H)-yl)methanone]",< 0.1
13,"Cc1ncc2c(N)nc3cnc(C(=O)N4C[C@H](C)C[C@@H]5Oc6c(ccc(C(F)(F)F)c6F)[C@@H]54)cc3n12 [Ff-388, (4-amino-1-methylimidazo[1,5-a]pyrido[3,4-e]pyrazin-8-yl)((3R,4aS,9bS)-6-fluoro-3-methyl-7-(trifluoromethyl)-3,4,4a,9b-tetrahydrobenzofuro[3,2-b]pyridin-1(2H)-yl)methanone]",< 0.1
14,"Nc1nc2ccc(C(=O)N3CCC[C@@H]4Oc5cc(C(F)(F)F)c(F)cc5[C@@H]43)cc2n2cncc12 [Ff-389, (4-aminoimidazo[1,5-a]quinoxalin-8-yl)((4aS,9bS)-8-fluoro-7-(trifluoromethyl)-3,4,4a,9b-tetrahydrobenzofuro[3,2-b]pyridin-1(2H)-yl)methanone]",< 0.1
15,Nc1nc2cc(F)c(C(=O)N3CC(C(F)(F)F)OCC3c3ccc(C(F)(F)F)cn3)cc2n2cncc12 (centres unmarked) [Ff-401],0.1 to 1
16,"Nc1nc2cc(F)c(C(=O)N3CCC(F)(F)C[C@@H]3c3ccc(OC(F)(F)F)cc3)cc2n2cncc12 [Ff-403, (R)-(4-amino-7-fluoroimidazo[1,5-a]quinoxalin-8-yl)(4,4-difluoro-2-(4-(trifluoromethoxy)phenyl)piperidin-1-yl)methanone]",0.1 to 1
17,"Nc1nc2cc(F)c(C(=O)N3CCCC[C@@H]3c3ccc(S(F)(F)(F)(F)F)cc3)cc2n2cncc12 [Ff-404, (R)-(4-amino-7-fluoroimidazo[1,5-a]quinoxalin-8-yl)(2-(4-(pentafluoro-λ^6-sulfaneyl)phenyl)piperidin-1-yl)methanone]",< 0.1
18,"Nc1nc2cc(F)c(C(=O)N3CCC(F)(F)C[C@@H]3c3ccc(S(F)(F)(F)(F)F)cc3)cc2n2cncc12 [Ff-405, (R)-(4-amino-7-fluoroimidazo[1,5-a]quinoxalin-8-yl)(4,4-difluoro-2-(4-(pentafluoro-λ^6-sulfaneyl)phenyl)piperidin-1-yl)methanone]",< 0.1
19,"C[C@H]1CN(C(=O)c2cc3c(cc2Cl)nc(N)c2cncn23)[C@H]2c3ccc(C(F)(F)F)cc3C[C@H]2O1 [Ff-406, (4-amino-7-chloroimidazo[1,5-a]quinoxalin-8-yl)((2S,4aS,9aR)-2-methyl-7-(trifluoromethyl)-2,3,9,9a-tetrahydroindeno[2,1-b][1,4]oxazin-4(4aH)-yl)methanone]",< 0.1
20,"Nc1nc2ccc(C(=O)N(Cc3ccc(C(F)(F)F)cc3F)C3CCC3)cc2n2cncc12 [Ff-408, 4-amino-N-cyclobutyl-N-[[2-fluoro-4-(trifluoromethyl)phenyl]methyl]imidazo[1,5-a]quinoxaline-8-carboxamide]",< 0.1
21,"CN(Cc1ccc(C(F)(F)F)cc1C(F)(F)F)C(=O)c1ccc2nc(N)c3cncn3c2c1 [Ff-409, 4-amino-N-[[2,4-bis(trifluoromethyl)phenyl]methyl]-N-methyl-imidazo[1,5-a]quinoxaline-8-carboxamide]",0.1 to 1
22,"CN(Cc1ccc(C(F)(F)F)cc1F)C(=O)c1ccc2nc(N)c3cncn3c2c1 [Ff-411, 4-amino-N-[[2-fluoro-4-(trifluoromethyl)phenyl]methyl]-N-methyl-imidazo[1,5-a]quinoxaline-8-carboxamide]",0.1 to 1
23,"Cc1nn(C)cc1N(Cc1ccc(C(F)(F)F)cc1F)C(=O)c1cc2c(cc1F)nc(N)c1cncn12 [Ff-413, 4-amino-N-(1,3-dimethylpyrazol-4-yl)-7-fluoro-N-[[2-fluoro-4-(trifluoromethyl)phenyl]methyl]imidazo[1,5-a]quinoxaline-8-carboxamide]",< 0.1
24,"Cc1c(N(Cc2ccc(C(F)(F)F)cc2F)C(=O)c2cc3c(cc2F)nc(N)c2cncn23)cnn1C [Ff-414, 4-amino-N-(1,5-dimethylpyrazol-4-yl)-7-fluoro-N-[[2-fluoro-4-(trifluoromethyl)phenyl]methyl]imidazo[1,5-a]quinoxaline-8-carboxamide]",< 0.1
25,"Nc1nc2cc(F)c(C(=O)N(Cc3ccc(C(F)(F)F)cn3)C3CC(F)(F)C3)cc2n2cncc12 [Ff-415, 4-amino-N-(3,3-difluorocyclobutyl)-7-fluoro-N-[[5-(trifluoromethyl)-2-pyridyl]methyl]imidazo[1,5-a]quinoxaline-8-carboxamide]",< 0.1
26,"C[C@H](c1ncccn1)N(Cc1ccc(C(F)(F)F)cc1F)C(=O)c1cc2c(cc1F)nc(N)c1cncn12 [Ff-416, 4-amino-7-fluoro-N-[[2-fluoro-4-(trifluoromethyl)phenyl]methyl]-N-[(1R)-1-pyrimidin-2-ylethyl]imidazo[1,5-a]quinoxaline-8-carboxamide]",< 0.1

# Same assay, conditions: Homo sapiens, HCT-116; cell viability, HCT116 MTAP-deleted; class symbols; read-out: CC50
row,Compound,CC50 [µM]
1,"Cc1ncn2c1c(N)nc1cc(F)c(C(=O)N3CCC[C@@H]4Oc5nc(C(F)(F)F)ccc5[C@@H]43)cc12 [Ff-362, (4-amino-7-fluoro-3-methylimidazo[1,5-a]quinoxalin-8-yl)((4aS,9bS)-7-(trifluoromethyl)-3,4,4a,9b-tetrahydrofuro[2,3-b:4,5-b′]dipyridin-1(2H)-yl)methanone]",< 0.1
2,"Cc1ncn2c1c(N)nc1cc(Cl)c(C(=O)N3CCC[C@@H]4Oc5nc(C(F)(F)F)ccc5[C@@H]43)cc12 [Ff-364, (4-amino-7-chloro-3-methylimidazo[1,5-a]quinoxalin-8-yl)((4aS,9bS)-7-(trifluoromethyl)-3,4,4a,9b-tetrahydrofuro[2,3-b:4,5-b′]dipyridin-1(2H)-yl)methanone]",< 0.1
3,"Nc1nc2cc(F)c(C(=O)N3CC[C@H]4C[C@@H]3c3ccc(C(F)(F)F)cc3O4)cc2n2cncc12 [Ff-365, (4-amino-7-fluoroimidazo[1,5-a]quinoxalin-8-yl)((2S,6R)-9-(trifluoromethyl)-3,4-dihydro-2H-2,6-methanobenzo[b][1,5]oxazocin-5(6H)-yl)methanone]",< 0.1
